Consider one compound from US20240207258A1, “HETEROCYCLIC PDK1 INHIBITORS FOR USE TO TREAT CANCER” (Viracta Therapeutics, Inc., priority 2015, published 2024).

The subject of one test is Molm-13. The test can be described thus: MTS cell proliferation assay, Molm-13. Particulars: Homo sapiens; Molm-13, 72 hr. Format: cell-based. The protocol:
(§1) Cell proliferation was measured using the CellTiter 96 Aqueous Non-Radioactive Cell Proliferation Assay (Promega). The CellTiter 96® AQueous Assay is composed of solutions of a tetrazolium compound [3-(4,5-dimethylthiazol-2-yl)-5-(3-carboxymethoxyphenyl)-2-(4-sulfophenyl)-2H-tetrazolium, inner salt; MTS] and an electron coupling reagent (phenazine methosulfate) PMS. MTS is bioreduced by cells into a formazan product that is soluble in tissue culture medium. The absorbance of the formazan product at 490 nm can be measured directly from assay plates without additional processing. The quantity of formazan product as measured by the amount of 490 nm absorbance is directly proportional to the number of living cells in culture. Cells were seeded into 96-well or 384-well clear plates in a volume of 200 μL (96-well) or 50 μL (384-well) at optimized densities ranging from 1,000 to 40,000 cells per well for 96-well plates or 1,200 to 25,000 cells per well for 384-well plates depending on cell-line. After 4-6 hr recovery, serially diluted compounds in DMSO were added to the cells using (0.1% v/v final DMSO concentration). Cells were then grown at 37° C. in a humidified incubator with 5% CO2 for 72 hr. A 20:1 [3-(4,5-dimethylthiazol-2-yl)-5-(3-carboxymethoxyphenyl)-2-(4-sulfophenyl)-2H-tetrazolium](MTS):phenazine methosulfate (PMS) solution in DPBS was made immediately before use, added to each well, and cells were incubated for 1.5 hr at 37° C. The absorbance at 490 nm was then measured using a platereader. Absorbance values were normalized as percent of control (cells incubated in the presence of 0.1% v/v DMSO). Sigmoidal dose-response curves were plotted using log(inhibitor) vs. response—Variable slope (four parameters) model with a top value constrained to 100% (GraphPad Prism version 6.00 for Windows, GraphPad Software, La Jolla California USA). […] Curves for compounds that reached a plateau were matched exactly to the measurement points. […] To determine potential of compounds of the invention to affect viability of hematological cancers, cell lines representing various tumor types were selected and tested. Human cell lines tested were: MOLM-13 (acute myeloid leukemia (AML)), MV4-11 (AML), U-2932 (ABC-diffuse large B cell lymphoma), U-937 (histiocytic lymphoma), U-266 (multiple myeloma), RPMI-8226 (multiple myeloma), CMK (megakaryoblastic cell line), SU-DHL-4 (GCB-diffuse large B cell lymphoma), KG1 (AML), Mec-1 (chronic B-cell leukemia), MOLM-16 (AML), Jeko (B-cell lymphoma), WSU-DLCL2 (B-cell lymphoma), JJN3 (plasma cell leukemia), SU-DHL-6 (GCB-diffuse large B cell lymphoma), and Z-138 (mantle cell lymphoma). In addition, two murine cell lines were tested: A20 […].
(Tetrazolium dyes change colour on reduction, which living cells bring about.)

In the next test the test system is P-AKT. Kind of test: Western blot, AKT phosphorylation in A20 cells. Format: cell-based, murine. Here is the method:
(§2) For phosphoprotein analyses, cells were seeded into 10 cm petri dishes (10×10^6 cells/dish) in media supplemented with 10% FBS and penicillin/streptomycin. After cells recovered for 1 hr at 37° C., compounds were added in DMSO (0.1% final) and incubated for 4 or 24 hr at 37° C. Cells were then harvested by centrifugation and washed with cold PBS. Cell pellets were resuspended in cell extraction buffer (Invitrogen) supplemented with 2×Halt™ protease and phosphatase inhibitor cocktail (Thermo Scientific), 2 mM sodium orthovanadate, 10 mM EDTA and 4 mM PMSF. Samples were lysed by sonication and incubated on ice for 30 min. Cell debris was removed by centrifugation and protein concentrations were determined using the BCA Protein Assay Kit (Pierce). The clarified lysate was diluted in LDS sample buffer with reducing agent (Life Technologies). […] Gels were run at 110 V and proteins were transferred to a PVDF membrane. Membranes were blocked in TBS blocking buffer (Li-Cor Biosciences) for 1 hr. Primary antibodies (Cell Signaling, Sant Cruz Biotechnology) were added (1:1,000 dilution) in blocking buffer with 0.1% Tween-20 and 1:20,000 dilution of β-actin antibody and incubated for 14 hr at 4° C. Blots were washed in TBS-T. Label-conjugated goat anti-rabbit secondary antibody (IRdye® 800CW; Li-Cor Biosciences) was added in blocking buffer with 0.1% Tween-20 and 0.02% SDS and incubated for 1 hr. After washing in TBS-T followed by TBS, membranes were scanned on an Odyssey imaging system (Li-Cor Biosciences). Bands were quantitated using ImageJ.
For orientation: In western blotting, separated proteins are transferred to a membrane and probed.

The next test deals with RPMI-8226. Kind of test: MTS cell proliferation assay, RPMI-8226. Particulars: Homo sapiens; RPMI-8226, 72 hr. Format: cell-based. The protocol: as §1
The next test relates to P-RSK2. The test can be described thus: Western blot, RSK2 phosphorylation in C1498 cells. Format: cell-based, murine. Particulars: C1498. The protocol:
as §2, with “Blots were washed in TBS-T. Label-conjugated goat anti-rabbit secondary antibody (IRdye® 800CW; Li-Cor Biosciences) was added in blocking buffer with 0.1% Tween-20 and 0.02% SDS and incubated for 1 hr. After washing in TBS-T followed by TBS, membranes were scanned on an Odyssey imaging system (Li-Cor Biosciences).” left out

The next test relates to P-PDK1. The test can be described thus: Western blot, PDK1 phosphorylation in C1498 cells. Format: cell-based, murine. Particulars: C1498. The protocol: as §2, with “Blots were washed in TBS-T. Label-conjugated goat anti-rabbit secondary antibody (IRdye® 800CW; Li-Cor Biosciences) was added in blocking buffer with 0.1% Tween-20 and 0.02% SDS and incubated for 1 hr. After washing in TBS-T followed by TBS, membranes were scanned on an Odyssey imaging system (Li-Cor Biosciences).” left out

Test [1] relates to hematologic tumor cell lines. The test can be described thus: MTS cell proliferation assay, panel of hematologic cancer cell lines. Particulars: range over 16 cell lines, FIG. 3; read-out: potency in the cell proliferation assay (EC50). Format: cell-based. The protocol: as §1
For the next test, the system named is U-2932. The test can be described thus: MTS cell proliferation assay, U-2932. Format: cell-based. Particulars: Homo sapiens, U2932; U-2932, 72 hr. Here is the method: as §1
For another test, the system named is C1498. The test can be described thus: MTS cell proliferation assay, C1498. Format: cell-based, murine. Here is the method: (§3) Cell proliferation was measured using the CellTiter 96 Aqueous Non-Radioactive Cell Proliferation Assay (Promega). […] MTS is bioreduced by cells into a formazan product that is soluble in tissue culture medium. The absorbance of the formazan product at 490 nm can be measured directly from assay plates without additional processing. The quantity of formazan product as measured by the amount of 490 nm absorbance is directly proportional to the number of living cells in culture. Cells were seeded into 96-well or 384-well clear plates in a volume of 200 μL (96-well) or 50 μL (384-well) at optimized densities ranging from 1,000 to 40,000 cells per well for 96-well plates or 1,200 to 25,000 cells per well for 384-well plates depending on cell-line. After 4-6 hr recovery, serially diluted compounds in DMSO were added to the cells using (0.1% v/v final DMSO concentration). Cells were then grown at 37° C. in a humidified incubator with 5% CO2 for 72 hr. A 20:1 [3-(4,5-dimethylthiazol-2-yl)-5-(3-carboxymethoxyphenyl)-2-(4-sulfophenyl)-2H-tetrazolium](MTS):phenazine methosulfate (PMS) solution in DPBS was made immediately before use, added to each well, and cells were incubated for 1.5 hr at 37° C. The absorbance at 490 nm was then measured using a platereader. Absorbance values were normalized as percent of control (cells incubated in the presence of 0.1% v/v DMSO). Sigmoidal dose-response curves were plotted using log(inhibitor) vs. response—Variable slope (four parameters) model with a top value constrained to 100% (GraphPad Prism version 6.00 for Windows, GraphPad Software, La Jolla California USA). […] To determine potential of compounds of the invention to affect viability of hematological cancers, cell lines representing various tumor types were selected and tested. […] In addition, two murine cell lines were tested: A20 […].

For the next test, the system named is A20. Kind of test: MTS cell proliferation assay, A20. Format: cell-based, murine. Particulars: Mus musculus; A20, 72 hr. The protocol:
as §1

The next test deals with MV4-11. The test can be described thus: MTS cell proliferation assay, MV4-11. Format: cell-based, human. Here is the method:
as §3

In a further test the test system is Jeko. Kind of test: MTS cell proliferation assay, Jeko. Format: cell-based. Particulars: Homo sapiens, 72 hr. The protocol:
as §1

The structures appear in SMILES notation.

For `NC1(c2ccc(-c3nc4ccn5c(=O)[nH]nc5c4cc3-c3ccccc3)cc2)CCC1` [MK-2206, reference compound], the EC50 in the test with Molm-13 was 1.37 µM; with RPMI-8226 it was 0.906 µM; in test [1], 0.1 to 10.7 µM; in the test on U-2932 it was 4.88 µM; in the test with C1498 (Mus musculus, C1498, 72 hr, read-out: MTS proliferation assay), 0.812 µM; with A20, 0.138 µM. Also, the EC50 in the test with MV4-11 (Homo sapiens, MV4-11, 72 hr, read-out: MTS proliferation assay) was found to be 1.3 µM; in the test on Jeko, 0.98 µM. Besides, the “P-AKT levels” value with P-AKT is listed as “sensitive”. The “effect on RSK2 phosphorylation” value with P-RSK2 is recorded as “appears to enhance”. Besides, the “effect on PDK1 phosphorylation” value in the test on P-PDK1 was “appears to enhance”. Also, the “plateau of growth inhibition curve” value in the test on C1498 (C1498) and with MV4-11 (MV4-11) was “do not reach a plateau below 20%” each time.
